For test [1], the target named is T1, human recombinant NOP receptor (Homo sapiens, UniProt P41146).
T1 construct: expressed in transfected cells
In words: cell-based. The test is classed as cell-based.

In a further test the test system is mouse vas deferens. As to the kind of experiment: electrically stimulated mouse vas deferens bioassay. The note with it: Table 2; for mVD Emax ± SEM: percent of the control twitch, mean ± SEM of at least 4 separate experiments, footnote a: concentration response curve incomplete due to low potency. The method, then:
The experiments were performed on the mouse vas deferens (mVD). The tissues were taken from male CD-1 mice 16–18 g (Harlan, Ud, Italy). Mice were housed in 425 × 266 × 155 mm cages (Techniplast, Mi, Italy), 8 per cage, all under standard conditions (22 °C, 55% humidity, 12 h light/dark cycle, light on at 7:00 h), with food for mice (4RF, Mucedola, Mi, Italy) and water ad libitum. A mouse red house (Tecniplast, Va, Italy) and nesting materials were present in each cage for mice. The day of the experiment the animals were sacrificed with CO2 overdose. The experimental protocol was approved by the Ethical Committee for the Use of Laboratory Animals of the University of Ferrara and by the Italian Ministry of Health (authorization number 9927, 19/04/2013). The animals were treated in accordance with the European Communities Council directives (2010/63/EU) and national regulations (D.L. 26/2014). Bioassay experiments were performed as previously described. The tissues were suspended in 5 ml organ bath containing Krebs solution (composition in mM: NaCl 118.5, KCl 4.7, KH2PO4 1.2, NaHCO3 25, CaCl2 2.5, glucose 10). The Krebs solution was oxygenated with 95% O2 and 5% CO2. The temperature was set at 33 °C. At resting tension 0.3 g was applied to the mVD. […] The electrically evoked contractions were measured isotonically by means of Basile strain gauge transducers (Basile 7006; srl Ugo Basile, Varese, Italy) and recorder with a computer – based acquisition system (Power Lab 8, ADInstruments, Colorado Springs, USA). […]
The pharmacological terminology adopted in this paper is consistent with IUPHAR recommendations. All data are expressed as the mean ± standard error of the mean (SEM) of n experiments. […] In calcium mobilization experiments, maximum change in fluorescence, expressed as percent over the baseline fluorescence, was used to determine agonist response. Electrically stimulated tissues data are expressed as % of the control twitch induced by electrical field stimulation. […]

Read-outs that look alike come from different tables or passages of the source. Ends that are not written are not given here.

T1 sequence (P41146 whole entry): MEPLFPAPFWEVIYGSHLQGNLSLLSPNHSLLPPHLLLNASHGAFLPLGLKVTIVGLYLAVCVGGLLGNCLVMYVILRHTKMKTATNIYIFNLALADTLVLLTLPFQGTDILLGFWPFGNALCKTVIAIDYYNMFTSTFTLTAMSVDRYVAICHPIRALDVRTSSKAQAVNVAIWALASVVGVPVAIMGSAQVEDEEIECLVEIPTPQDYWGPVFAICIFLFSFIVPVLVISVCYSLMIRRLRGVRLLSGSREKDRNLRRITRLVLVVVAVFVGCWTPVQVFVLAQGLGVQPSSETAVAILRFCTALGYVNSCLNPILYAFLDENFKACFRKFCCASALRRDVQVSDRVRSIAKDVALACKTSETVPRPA

Regarding “FGGFTGARKSAR-NH2 [compound 10, N/OFQ(1-12)-NH2] [listing 1 of 2 here]”, in test [1] (Ca2+ mobilization pEC50 (CL95%)), the EC50 was 0.2 nM.

As to “FGGFTGARKSAR-NH2 [compound 10, N/OFQ(1-12)-NH2] [listing 2 of 2 here]”, the Emax in test [1] (CHO, read-out: Ca2+ mobilization Emax ± SEM, SEM) worked out at 204 ± 16%.

For the substance “N/OFQ(1-11)-NH2 (FGGFTGARKSA-NH2; UniProt Q13519 130-140, looked up, fragment) [compound 12]”, the “Ca2+ mobilization Emax ± SEM” value in test [1] (SEM) worked out at 182 ± 34%. Moreover, the “mVD Emax ± SEM” value in the test on mouse vas deferens (SEM) worked out at 65 ± 5%^a.

On to N/OFQ(2-12)-NH2 [compound 14], for which, in test [1], the “Ca2+ mobilization Emax ± SEM” value was “Inactive” and the “Ca2+ mobilization pEC50 (CL95%)” value is recorded as “Inactive”. Further, the “mVD pEC50 (CL95%)” value in the test with mouse vas deferens (electrically stimulated mouse vas deferens, Krebs solution, 33 °C, cumulative concentration response curves, mean of at least 4 separate experiments, CL95% in brackets, * P < 0.05 versus N/OFQ(1-13)-NH2) was “inactive”. Moreover, the “mVD Emax ± SEM” value in the test on mouse vas deferens is “inactive”.

As to “compound 15: heterodimeric derivative N/OFQ(1-12)-N/OFQ(2-12), 2,2′-disulfanediyldiethanamine spacer (chain 1 FGGFTGARKSAR; chain 2 GGFTGARKSAR)”, the “Ca2+ mobilization pEC50 (CL95%)” value in test [1] is 9.49 (9.07–9.91).

By EC50 is commonly meant the concentration that produces a half-maximal response. The term Emax denotes the maximal effect, on the per cent scale that the assay sets.

The record behind these values is publication PMC5382891 (Scientific Reports, 2017).
